# Counter-ions that a name gives are not always drawn. Like-named read-outs stand apart in the source and are kept apart here.
# Molecular target: human GlyT1c transporter (Homo sapiens (Human), UniProt P48067)
# Assay: Radioligand binding assay using recombinant CHO cell membranes expressing human GlyT1
# Settings: human GlyT1c-expressing CHO cell membranes, read-out: radioligand binding Kiapp
# Text: 2. Radioligand binding assays using recombinant CHO cell membranes expressing human GlyT1: […]
# Sequence of human GlyT1c transporter (P48067 whole entry): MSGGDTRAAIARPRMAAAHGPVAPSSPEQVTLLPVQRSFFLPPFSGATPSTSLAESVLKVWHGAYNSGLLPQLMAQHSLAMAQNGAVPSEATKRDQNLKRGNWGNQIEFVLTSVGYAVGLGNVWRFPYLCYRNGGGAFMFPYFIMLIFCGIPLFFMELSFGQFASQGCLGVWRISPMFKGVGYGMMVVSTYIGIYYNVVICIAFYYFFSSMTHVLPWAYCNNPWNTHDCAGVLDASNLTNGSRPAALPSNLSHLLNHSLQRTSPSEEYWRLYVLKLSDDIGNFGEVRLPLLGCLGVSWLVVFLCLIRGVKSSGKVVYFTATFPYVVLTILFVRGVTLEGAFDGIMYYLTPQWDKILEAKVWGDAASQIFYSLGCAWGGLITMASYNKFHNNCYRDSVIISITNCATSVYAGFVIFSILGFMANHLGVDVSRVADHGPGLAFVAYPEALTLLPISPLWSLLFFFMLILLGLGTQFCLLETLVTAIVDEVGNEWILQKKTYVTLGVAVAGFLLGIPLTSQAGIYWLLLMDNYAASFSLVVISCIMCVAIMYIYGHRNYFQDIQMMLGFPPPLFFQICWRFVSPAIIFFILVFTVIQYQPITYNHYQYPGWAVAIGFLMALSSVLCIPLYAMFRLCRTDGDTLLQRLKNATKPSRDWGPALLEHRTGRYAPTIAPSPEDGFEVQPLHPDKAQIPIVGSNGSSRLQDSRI
SMILES,Ki [nM],also measured
"Cn1cnc(S(=O)(=O)NCCOc2ccc3c(c2)C(Cc2cc(F)cc(Cl)c2)C(N)CC3)c1 (stereo not shown) [Example 151, N-(2-{[7-Amino-8-(3-chloro-5-fluorobenzyl)-5,6,7,8-tetrahydronaphthalen-2-yl]oxy}ethyl)-1-methyl-1H-imidazole-4-sulfonamide hydrochloride]",≤ 10,–
"O=S(=O)(CC1CC1)NCCOc1ccc2c(c1)C(Cc1ccccc1)C(N1CCC1)CC2 (single isomer, unassigned; (+)) [Example 144, (+)-N-(2-(7-(azetidin-1-yl)-8-benzyl-5,6,7,8-tetrahydronaphthalen-2-yloxy)ethyl)-1-cyclopropylmethanesulfonamide succinate]",–,Ki (succinate): ≤ 1000 nM
"NC1CCc2ccc(OCCNS(=O)(=O)CC3CC3)cc2C1Cc1ccc(F)c(F)c1 (stereo not shown) [Example 131, N-(2-{[7-Amino-8-(3,4-difluorobenzyl)-5,6,7,8-tetrahydronaphthalen-2-yl]oxy}ethyl)-1-cyclopropylmethanesulfonamide hydrochloride]",≤ 100,–
"O=S(=O)(CC1CC1)NCCOc1ccc2c(c1)C(Cc1cccc(F)c1)C(N1CCCC1)CC2 (stereo not shown) [Example 138, 1-Cyclopropyl-N-(2-{[8-(3-fluorobenzyl)-7-(pyrrolidin-1-yl)-5,6,7,8-tetrahydronaphthalen-2-yl]oxy}ethyl)methanesulfonamide hydrochloride]",≤ 10,–
"CN(CCOc1ccc2c(c1)C(Cc1ccc(Cl)cc1)C(N)CC2)S(=O)(=O)CC1CC1 (stereo not shown) [Example 129, N-(2-{[7-Amino-8-(4-chlorobenzyl)-5,6,7,8-tetrahydronaphthalen-2-yl]oxy}ethyl)-1-cyclopropyl-N-methylmethanesulfonamide hydrochloride]",≤ 10,–
"Cn1cnc(S(=O)(=O)NCCOc2ccc3c(c2)C(Cc2ccccc2)C(N2CCCC2)CC3)c1 (single isomer, unassigned; (-)) [Example 117, (−)-N-(2-(8-benzyl-7-(pyrrolidin-1-yl)-5,6,7,8-tetrahydronaphthalen-2-yloxy)ethyl)-1-methyl-1H-imidazole-4-sulfonamide hydrochloride]",–,Ki (hydrochloride): ≤ 10 nM
"CN(CCOc1ccc2c(c1)C(Cc1ccccc1)C(N1CCC1)CC2)S(=O)(=O)c1cn(C)cn1 (stereo not shown) [Example 105, 1-Methyl-1H-imidazole-4-sulfonic acid [2-(7-azetidin-1-yl-8-benzyl-5,6,7,8-tetrahydronaphthalen-2-yloxy)-ethyl]-methyl-amide]",≤ 100,–
"NC1CCc2ccc(OCCNS(=O)(=O)CCC3CC3)cc2C1Cc1ccc(Cl)c(Cl)c1 (stereo not shown) [Example 125, N-(2-{[7-Amino-8-(3,4-dichlorobenzyl)-5,6,7,8-tetrahydronaphthalen-2-yl]oxy}ethyl)-2-cyclopropylethanesulfonamide hydrochloride]",≤ 1000,–
"COc1cccc(CC2c3cc(OCCNS(=O)(=O)c4cn(C)cn4)ccc3CCC2N2CCCC2)c1 (stereo not shown) [Example 164, N-(2-{[8-(3-Methoxybenzyl)-7-(pyrrolidin-1-yl)-5,6,7,8-tetrahydronaphthalen-2-yl]oxy}ethyl)-1-methyl-1H-imidazole-4-sulfonamide hydrochloride]",≤ 10,–
"Cn1ccc(S(=O)(=O)NCCOc2ccc3c(c2)C(Cc2cccc(F)c2)C(N2CCCC2)CC3)c1 (stereo not shown) [Example 149, N-(2-{[8-(3-Fluorobenzyl)-7-(pyrrolidin-1-yl)-5,6,7,8-tetrahydronaphthalen-2-yl]oxy}ethyl)-1-methyl-1H-pyrrole-3-sulfonamide hydrochloride]",≤ 100,–
"O=S(=O)(CC1CC1)NCCOc1ccc2c(c1)C(Cc1ccccc1)C(N1CCC(F)C1)CC2 (stereo not shown) [Example 136, N-[2-({8-Benzyl-7-[3-fluoropyrrolidin-1-yl]-5,6,7,8-tetrahydronaphthalen-2-yl}oxy)ethyl]-1-cyclopropylmethanesulfonamide hydrochloride]",≤ 100,–
"CN(CCOc1ccc2c(c1)C(Cc1ccc(Cl)c(Cl)c1)C(N)CC2)S(=O)(=O)CC1CC1 (stereo not shown) [Example 108, N-{2-[7-Amino-8-(3,4-dichloro-benzyl)-5,6,7,8-tetrahydro-naphthalen-2-yloxy]-ethyl}-C-cyclopropyl-N-methyl-methanesulfonamide hydrochloride]",≤ 10,–
"Cc1cccc(S(=O)(=O)NCc2ccc3c(c2)C(Cc2ccccc2)C(N)CC3)c1 (stereo not shown) [Example 179, N-{[7-Amino-8-benzyl-5,6,7,8-tetrahydronaphthalen-2-yl]methyl}-3-methylbenzenesulfonamide hydrochloride]",≤ 1000,–

# More lines, main results first:
Ki [nM],SMILES,also measured
≤ 1000,"CCCS(=O)(=O)NCCOc1ccc2c(c1)C(Cc1cccc(Cl)c1)C(N1CCCC1)CC2 (stereo not shown) [Example 323, Propane-1-sulfonic acid {2-[8-(3-chloro-benzyl)-7-pyrrolidin-1-yl-5,6,7,8-tetrahydronaphthalen-2-yloxy]-ethyl}-amide hydrochloride]",–
≤ 1000,"Cc1nc(S(=O)(=O)NCCOc2ccc3c(c2)C(Cc2cccc(Cl)c2)C(N)CC3)cn1C (stereo not shown) [Example 316, 1,2-Dimethyl-1H-imidazole-4-sulfonic acid {2-[7-amino-8-(3-chloro-benzyl)-5,6,7,8-tetrahydro-naphthalen-2-yloxy]-ethyl}-amide hydrochloride]",–
≤ 10000,"NC1CCc2ccc(OCCNS(=O)(=O)C3CC3)cc2C1Cc1ccccc1Cl (stereo not shown) [Example 294, Cyclopropanesulfonic acid {2-[7-amino-8-(2-chloro-benzyl)-5,6,7,8-tetrahydro-naphthalen-2-yloxyl]-ethyl}-amide hydrochloride]",–
≤ 1000,"O=S(=O)(NCc1ccc2c(c1)C(Cc1ccccc1)C(N1CCC1)CC2)c1cccs1 (single isomer, unassigned; enantiomer 1) [Example 255, Enantiomer 1 of N-{[7-(azetidin-1-yl)-8-benzyl-5,6,7,8-tetrahydronaphthalen-2-yl]methyl}thiophene-2-sulfonamide]",–
≤ 1000,"NC1CCc2ccc(OCCNS(=O)(=O)CC3CC3)cc2C1Cc1ccccc1Cl (stereo not shown) [Example 295, N-{2-[7-Amino-8-(2-chloro-benzyl)-5,6,7,8-tetrahydro-naphthalen-2-yloxy]-ethyl}-C-cyclopropyl-methanesulfonamide hydrochloride]",–
≤ 100,"CCCS(=O)(=O)N(C)CCCc1ccc2c(c1)C(Cc1ccc(F)cc1)C(N)CC2 (stereo not shown) [Example 232, N-{3-[7-Amino-8-(4-fluorobenzyl)-5,6,7,8-tetrahydronaphthalen-2-yl]propyl}-N-methylpropane-1-sulfonamide hydrochloride]",–
≤ 10000,"CCOC(=O)NC1CCc2ccc(OCCN(C)S(=O)(=O)CC3CC3)cc2C1Cc1cccc(Cl)c1 (stereo not shown) [Example 290, {1-(3-Chloro-benzyl)-7-[2-(cyclopropylmethanesulfonyl-methyl-amino)-ethoxy]-1,2,3,4-tetrahydro-naphthalen-2-yl}-carbamic acid ethyl ester]",–
≤ 100,"NC1CCc2ccc(CNS(=O)(=O)C3CCC3)cc2C1Cc1cccc(F)c1 (stereo not shown) [Example 184, N-{[7-Amino-8-(3-fluorobenzyl)-5,6,7,8-tetrahydronaphthalen-2-yl]methyl}cyclobutanesulfonamide hydrochloride]",–
≤ 1000,"CCCS(=O)(=O)CCc1ccc2c(c1)C(Cc1cccc(Cl)c1)C(N)CC2 (stereo not shown) [Example 326, 1-(3-Chloro-benzyl)-7-[2-(propane-1-sulfonyl)-ethyl]-1,2,3,4-tetrahydro-naphthalen-2-ylamine hydrochloride]",–
≤ 1000,"CCCS(=O)(=O)NCCCc1ccc2c(c1)C(Cc1cccc(Cl)c1)C(N1CCCC1)CC2 (stereo not shown) [Example 264, N-{3-[8-(3-Chlorobenzyl)-7-(pyrrolidin-1-yl)-5,6,7,8-tetrahydronaphthalen-2-yl]propyl}propane-1-sulfonamide hydrochloride]",–
≤ 10,"Cn1cnc(S(=O)(=O)NCCOc2ccc3c(c2)C(Cc2ccccc2)C(N)CC3)c1 (single isomer, unassigned; enantiomer 1) [Example 238, Enantiomer 1 of N-(2-{[7-amino-8-benzyl-5,6,7,8-tetrahydronaphthalen-2-yl]oxy}ethyl)-1-methyl-1H-imidazole-4-sulfonamide hydrochloride]",–
≤ 1000,"O=S(=O)(NCc1ccc2c(c1)C(Cc1ccccc1)C(N1CCC1)CC2)c1ccccn1 (single isomer, unassigned; enantiomer 1) [Example 253, Enantiomer 1 of N-{[7-(azetidin-1-yl)-8-benzyl-5,6,7,8-tetrahydronaphthalen-2-yl]methyl}pyridine-2-sulfonamide]",–
≤ 100,"NC1CCc2ccc(CCCNS(=O)(=O)CC3CC3)cc2C1Cc1ccc(Cl)cc1 (stereo not shown) [Example 202, N-{3-[7-Amino-8-(4-chlorobenzyl)-5,6,7,8-tetrahydronaphthalen-2-yl]propyl}-1-cyclopropylmethanesulfonamide hydrochloride]",–
≤ 1000,"Cn1ccc(S(=O)(=O)NCc2ccc3c(c2)C(Cc2ccccc2)C(N)CC3)n1 (stereo not shown) [Example 183, N-{[7-Amino-8-benzyl-5,6,7,8-tetrahydronaphthalen-2-yl]methyl}-1-methyl-1H-pyrazole-3-sulfonamide hydrochloride]",–
≤ 100,"Cn1cnc(S(=O)(=O)NCc2ccc3c(c2)C(Cc2cccc(F)c2)C(N2CCC2)CC3)c1 (stereo not shown) [Example 256, N-{[7-(Azetidin-1-yl)-8-(3-fluorobenzyl)-5,6,7,8-tetrahydronaphthalen-2-yl]methyl}-1-methyl-1H-imidazole-4-sulfonamide hydrochloride]",–
≤ 100,"CCCS(=O)(=O)NCCCc1ccc2c(c1)C(Cc1ccc(Cl)cc1)C(N)CC2 (stereo not shown) [Example 201, N-{3-[7-Amino-8-(4-chlorobenzyl)-5,6,7,8-tetrahydronaphthalen-2-yl]propyl}propane-1-sulfonamide hydrochloride]",–
≤ 10000,"CCCS(=O)(=O)N1CC(COc2ccc3c(c2)C(Cc2cccc(Cl)c2)C(NC(=O)OCC)CC3)C1 (stereo not shown) [Example 285, {1-(3-Chloro-benzyl)-7-[1-(propane-1-sulfonyl)-azetidin-3-ylmethoxy]-1,2,3,4-tetrahydronaphthalen-2-yl}-carbamic acid ethyl ester]",–
≤ 10000,CCCS(=O)(=O)N(CCOc1ccc2c(c1)C(Cc1ccccc1)C(NC(=O)OCC)CC2)C1CC1 (stereo not shown) [Example 280],–

# — patent US9067871B2, “Aminotetraline derivatives, pharmaceutical compositions containing them, and their use in therapy” (ABBVIE DEUTSCHLAND GMBH & CO KG, priority 2009, dated 2015)
